Measurements: patent publication US8952024B2, “Herbicidal pyrimidone derivatives” (E I du Pont de Nemours and Company, priority 2009, dated 2015)

Tests used:
Format in all cases: in vivo
[1] = tested on: corn (Zea mays); experiment: Test A pre-/postemergence plant response
How it was run: (§1)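 Injury was scored visually after roughly ten days against untreated controls, 0 = no effect, 100 = complete control. Test chemicals in a surfactant-containing non-phytotoxic solvent were sprayed either onto soil preemergence or onto one- to two-leaf, 2–10 cm plants postemergence.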

[2] = tested on: morningglory (Ipomoea spp.); experiment: Test A pre-/postemergence plant response
How it was run: as §1

[3] = tested on: wheat (Triticum aestivum); experiment: Test A pre-/postemergence plant response
How it was run: as §1

[4] = tested on: barnyardgrass (Echinochloa crus-galli); experiment: Test A pre-/postemergence plant response
How it was run: as §1

[5] = tested on: large crabgrass (Digitaria sanguinalis); experiment: Test A pre-/postemergence plant response
How it was run: as §1

[6] = tested on: velvetleaf (Abutilon theophrasti); experiment: Test A pre-/postemergence plant response
How it was run: as §1

[7] = tested on: pigweed (Amaranthus retroflexus); experiment: Test A pre-/postemergence plant response
How it was run: as §1

[8] = tested on: giant foxtail (Setaria faberii); experiment: Test A pre-/postemergence plant response
How it was run: as §1

[9] = tested on: winter barley (Hordeum vulgare); experiment: Test B postemergence plant response
How it was run: (§2)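 Plants grown in peat/vermiculite medium were sprayed postemergence at 2–18 cm height (1- to 4-leaf stage). After 13–15 days in the greenhouse, response was rated visually against untreated controls on a 0–100 scale (0 no effect, 100 complete control).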

[10] = tested on: canarygrass (Phalaris minor); experiment: Test B postemergence plant response
How it was run: as §2

[11] = tested on: chickweed (Stellaria media); experiment: Test B postemergence plant response
How it was run: as §2

[12] = tested on: windgrass (Apera spica-venti); experiment: Test B postemergence plant response
How it was run: as §2

[13] = Postemergence, 125 g ai/ha, visual injury, 0 to 100 scale (0 no effect, 100 complete control), approx. ten days
[14] = Postemergence, 500 g ai/ha, 0 to 100 scale, 0 = no effect, 100 = complete control, approx. ten days
[15] = Preemergence, 125 g ai/ha, 0 to 100 scale, 0 = no effect, 100 = complete control
[16] = Preemergence, 500 g ai/ha, visual injury, 0 to 100 scale (0 no effect, 100 complete control), approx. ten days
[17] = 31 g ai/ha, postemergence, scale 0 to 100, 0 is no effect, 100 is complete control
[18] = Postemergence, 62 g ai/ha, scale 0 (no effect) to 100 (complete control), 13 to 15 days
[19] = Postemergence, 125 g ai/ha, visual rating after 13 to 15 days, scale 0 (no effect) to 100 (complete control)
[20] = Postemergence, 250 g ai/ha, scale 0 to 100 (0 no effect, 100 complete control)

O=C1CCCC(O)=C1C(=O)c1cnc(-c2ccsc2)n(-c2ccccc2)c1=O [Compound 56]
98: Plant response rating, Chickweed [11, 19] | Plant response rating, Chickweed [11, 20]
80: Crabgrass, Large plant response rating [5, 13] | Plant response rating, Crabgrass, Large [5, 15] | Plant response rating, Velvetleaf [6, 15] | Foxtail, Giant plant response rating [8, 13]
100: Plant response rating, Morningglory [2, 14] | Velvetleaf plant response rating [6, 13] | Plant response rating, Velvetleaf [6, 14] | Plant response rating, Velvetleaf [6, 16] | Plant response rating, Pigweed [7, 14] | Plant response rating, Pigweed [7, 16]
0: Plant response rating, Corn [1, 15] | Plant response rating, Corn [1, 16] | Wheat plant response rating [3, 13] | Plant response rating, Wheat [3, 14] | Plant response rating, Wheat [3, 15] | Plant response rating, Wheat [3, 16] | Plant response rating, Barley [9, 17] | Plant response rating, Canarygrass [10, 17]
60: Plant response rating, Windgrass [12, 19]
70: Plant response rating, Foxtail, Giant [8, 15]
95: Plant response rating, Chickweed [11, 18]
85: Plant response rating, Windgrass [12, 20]
50: Plant response rating, Corn [1, 14] | Plant response rating, Morningglory [2, 15] | Plant response rating, Barnyardgrass [4, 15]
90: Morningglory plant response rating [2, 13] | Plant response rating, Morningglory [2, 16] | Barnyardgrass plant response rating [4, 13] | Plant response rating, Barnyardgrass [4, 14] | Plant response rating, Barnyardgrass [4, 16] | Plant response rating, Crabgrass, Large [5, 14] | Plant response rating, Crabgrass, Large [5, 16] | Pigweed plant response rating [7, 13] | Plant response rating, Pigweed [7, 15] | Plant response rating, Foxtail, Giant [8, 14] | Plant response rating, Foxtail, Giant [8, 16] | Plant response rating, Chickweed [11, 17]
40: Plant response rating, Canarygrass [10, 19] | Plant response rating, Canarygrass [10, 20] | Plant response rating, Windgrass [12, 18]
10: Corn plant response rating [1, 13] | Plant response rating, Barley [9, 18]
30: Plant response rating, Barley [9, 19] | Plant response rating, Canarygrass [10, 18] | Plant response rating, Windgrass [12, 17]

O=C1CCCC(O)=C1C(=O)c1cnc(-c2ccccc2)n(CC2CCCO2)c1=O (stereo not shown) [Compound 59]
80: Foxtail, Giant plant response rating [8, 13] | Plant response rating, Foxtail, Giant [8, 16]
90: Plant response rating, Morningglory [2, 16] | Barnyardgrass plant response rating [4, 13] | Plant response rating, Barnyardgrass [4, 14] | Plant response rating, Barnyardgrass [4, 16] | Crabgrass, Large plant response rating [5, 13] | Plant response rating, Crabgrass, Large [5, 15] | Plant response rating, Pigweed [7, 15] | Plant response rating, Foxtail, Giant [8, 14]
85: Plant response rating, Chickweed [11, 17]
30: Plant response rating, Corn [1, 14]
0: Plant response rating, Corn [1, 15] | Plant response rating, Corn [1, 16] | Wheat plant response rating [3, 13] | Plant response rating, Wheat [3, 15] | Plant response rating, Wheat [3, 16] | Plant response rating, Barley [9, 17] | Plant response rating, Barley [9, 18]
40: Plant response rating, Barnyardgrass [4, 15]
98: Plant response rating, Chickweed [11, 18] | Plant response rating, Chickweed [11, 19]
100: Morningglory plant response rating [2, 13] | Plant response rating, Morningglory [2, 14] | Plant response rating, Crabgrass, Large [5, 14] | Plant response rating, Crabgrass, Large [5, 16] | Velvetleaf plant response rating [6, 13] | Plant response rating, Velvetleaf [6, 14] | Plant response rating, Velvetleaf [6, 15] | Plant response rating, Velvetleaf [6, 16] | Pigweed plant response rating [7, 13] | Plant response rating, Pigweed [7, 14] | Plant response rating, Pigweed [7, 16] | Plant response rating, Chickweed [11, 20]
50: Plant response rating, Foxtail, Giant [8, 15] | Plant response rating, Canarygrass [10, 19]
70: Plant response rating, Canarygrass [10, 20] | Plant response rating, Windgrass [12, 20]
60: Plant response rating, Windgrass [12, 18] | Plant response rating, Windgrass [12, 19]
5: Plant response rating, Canarygrass [10, 17] | Plant response rating, Canarygrass [10, 18]
20: Plant response rating, Windgrass [12, 17]
10: Corn plant response rating [1, 13] | Plant response rating, Wheat [3, 14] | Plant response rating, Barley [9, 19] | Plant response rating, Barley [9, 20]

CCCCc1ncc(C(=O)C2=C(O)CCCC2=O)c(=O)n1-c1cccc(C)c1 [Compound 63]
40: Plant response rating, Windgrass [12, 19]
100: Morningglory plant response rating [2, 13] | Plant response rating, Morningglory [2, 14] | Plant response rating, Crabgrass, Large [5, 16] | Velvetleaf plant response rating [6, 13] | Plant response rating, Velvetleaf [6, 14] | Plant response rating, Pigweed [7, 14] | Plant response rating, Pigweed [7, 15] | Plant response rating, Pigweed [7, 16]
70: Plant response rating, Morningglory [2, 16] | Barnyardgrass plant response rating [4, 13]
0: Plant response rating, Corn [1, 15] | Plant response rating, Corn [1, 16] | Wheat plant response rating [3, 13] | Plant response rating, Wheat [3, 14] | Plant response rating, Wheat [3, 16] | Plant response rating, Barley [9, 17] | Plant response rating, Barley [9, 18] | Plant response rating, Barley [9, 19] | Plant response rating, Barley [9, 20] | Plant response rating, Canarygrass [10, 17] | Plant response rating, Canarygrass [10, 18] | Plant response rating, Canarygrass [10, 19] | Plant response rating, Canarygrass [10, 20]
95: Plant response rating, Chickweed [11, 20]
90: Plant response rating, Barnyardgrass [4, 14] | Plant response rating, Barnyardgrass [4, 16] | Plant response rating, Crabgrass, Large [5, 14] | Plant response rating, Crabgrass, Large [5, 15] | Plant response rating, Velvetleaf [6, 16] | Pigweed plant response rating [7, 13]
30: Plant response rating, Windgrass [12, 18]
10: Corn plant response rating [1, 13] | Plant response rating, Morningglory [2, 15] | Plant response rating, Barnyardgrass [4, 15] | Plant response rating, Windgrass [12, 17]
60: Foxtail, Giant plant response rating [8, 13] | Plant response rating, Chickweed [11, 17] | Plant response rating, Windgrass [12, 20]
80: Crabgrass, Large plant response rating [5, 13] | Plant response rating, Velvetleaf [6, 15] | Plant response rating, Foxtail, Giant [8, 14] | Plant response rating, Foxtail, Giant [8, 16] | Plant response rating, Chickweed [11, 19]
50: Plant response rating, Corn [1, 14] | Plant response rating, Foxtail, Giant [8, 15]
65: Plant response rating, Chickweed [11, 18]

O=C1CCCC(O)=C1C(=O)c1cnc(-c2cccc(Cl)c2)n(-c2ccc(Cl)cc2)c1=O [Compound 64]
15: Plant response rating, Barley [9, 17]
30: Plant response rating, Wheat [3, 14]
98: Plant response rating, Chickweed [11, 17] | Plant response rating, Chickweed [11, 18] | Plant response rating, Chickweed [11, 19]
0: Corn plant response rating [1, 13] | Plant response rating, Corn [1, 15] | Plant response rating, Corn [1, 16] | Plant response rating, Morningglory [2, 15] | Plant response rating, Morningglory [2, 16] | Wheat plant response rating [3, 13] | Plant response rating, Wheat [3, 15] | Plant response rating, Wheat [3, 16]
60: Plant response rating, Corn [1, 14] | Plant response rating, Velvetleaf [6, 15] | Foxtail, Giant plant response rating [8, 13] | Plant response rating, Canarygrass [10, 20]
90: Morningglory plant response rating [2, 13] | Plant response rating, Barnyardgrass [4, 14] | Plant response rating, Barnyardgrass [4, 16] | Plant response rating, Crabgrass, Large [5, 14] | Plant response rating, Crabgrass, Large [5, 16] | Plant response rating, Velvetleaf [6, 16] | Pigweed plant response rating [7, 13] | Plant response rating, Windgrass [12, 18]
35: Plant response rating, Barley [9, 20]
40: Plant response rating, Canarygrass [10, 17] | Plant response rating, Canarygrass [10, 18] | Plant response rating, Canarygrass [10, 19]
95: Plant response rating, Windgrass [12, 19]
80: Crabgrass, Large plant response rating [5, 13] | Plant response rating, Crabgrass, Large [5, 15] | Plant response rating, Pigweed [7, 15] | Plant response rating, Foxtail, Giant [8, 14]
100: Plant response rating, Morningglory [2, 14] | Velvetleaf plant response rating [6, 13] | Plant response rating, Velvetleaf [6, 14] | Plant response rating, Pigweed [7, 14] | Plant response rating, Pigweed [7, 16] | Plant response rating, Chickweed [11, 20] | Plant response rating, Windgrass [12, 20]
10: Plant response rating, Barnyardgrass [4, 15]
50: Barnyardgrass plant response rating [4, 13] | Plant response rating, Foxtail, Giant [8, 15]
70: Plant response rating, Foxtail, Giant [8, 16] | Plant response rating, Windgrass [12, 17]
